Measurements: PMC3883289, “DER containing two consecutive GTP-binding domains plays an essential role in chloroplast ribosomal RNA processing and ribosome biogenesis in higher plants” (Journal of Experimental Botany, 2013)

Target: T1, NbDER (MBP:NbDER) (Nicotiana benthamiana, UniProt R4N342, S369A)
T1 construct: gene YphC; without N-terminal chloroplast transit peptide (Met-1 to Ser-60); N-terminal MBP tag kept; E. coli; precursor 651 residues; GD1, GD2 and CTD present; fusion proteins approximately 60-107 kDa
T1 sequence (R4N342 entry or part of it S369A): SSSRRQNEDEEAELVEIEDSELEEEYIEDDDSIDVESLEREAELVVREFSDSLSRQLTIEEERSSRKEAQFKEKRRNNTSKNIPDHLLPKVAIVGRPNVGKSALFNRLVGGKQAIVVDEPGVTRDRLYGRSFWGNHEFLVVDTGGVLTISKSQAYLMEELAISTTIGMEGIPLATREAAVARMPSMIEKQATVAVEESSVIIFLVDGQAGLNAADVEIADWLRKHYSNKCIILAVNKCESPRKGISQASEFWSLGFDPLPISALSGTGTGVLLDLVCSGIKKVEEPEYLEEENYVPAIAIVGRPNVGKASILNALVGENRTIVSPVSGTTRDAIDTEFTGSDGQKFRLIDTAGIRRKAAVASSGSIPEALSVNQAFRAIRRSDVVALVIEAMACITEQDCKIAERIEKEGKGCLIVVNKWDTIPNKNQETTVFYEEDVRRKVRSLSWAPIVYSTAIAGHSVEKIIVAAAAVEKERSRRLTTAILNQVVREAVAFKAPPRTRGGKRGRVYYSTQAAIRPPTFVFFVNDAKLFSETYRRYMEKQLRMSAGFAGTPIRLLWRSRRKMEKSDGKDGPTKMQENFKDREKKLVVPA
Assay: phosphate release, Biomol green
Type: biochemical
Details: 1 mM GTP, 3 uM protein, HEPES pH 8, 1 mM Mg (printed MgCl4), room temperature, 18 h

## Nc1nc2c(ncn2[C@@H]2O[C@H](COP(=O)(O)OP(=O)(O)OP(=O)(O)O)[C@@H](O)[C@H]2O)c(=O)[nH]1 [GTP]
  phosphate release, Biomol green: S162A or S369A mutation in NbDER (PM1 or PM2) reduced the k cat values
